Source: the C3SDB collision cross section collection

details: [M+H-H2O]+; instrument: TW; calibrated with polyalanine and drug standards

SMILES | collision cross section (N2)
COc1ccc2c(c1)OC[C@@H](Cc1ccc(OC)c(OC)c1)[C@@H]2O [3-DESHYDROXYSAPPANOL TRIMETHYL ETHER] | 172.3 Å²
Cc1cc(O)c(C)c(O)c1C(=O)O [3-METHYLORSELLINIC ACID] | 127.5 Å²

same assay, conditions: [M+H]+; instrument: TW; calibrated with polyalanine and drug standards

SMILES | collision cross section (N2)
COc1cc2oc3cc(OC)c(OC)c(CC=C(C)C)c3c(=O)c2c(O)c1CC=C(C)C [1-HYDROXY-3,6,7-TRIMETHOXY-2,8-DIPRENYLXANTHONE] | 209.7 Å²
COc1cc(O)c(C(=O)/C=C/c2ccc(O)c(OC)c2)c(OC)c1 [2',4-DIHYDROXY-3,4',6'-TRIMETHOXYCHALCONE] | 177.5 Å²
O=c1[nH]c2cc(Cl)c(Cl)cc2[nH]c1=O [2,3-DIHYDROXY-6,7-DICHLOROQUINOXALINE] | 143 Å²
COC1=CC(=O)C(C(=O)c2ccccc2)=CC1=O [2-BENZOYL-5-METHOXYBENZOQUINONE] | 145.4 Å²
CCOc1cccc(C(=O)c2ccc(O)c(O)c2O)c1 [3,4-DIDESMETHYL-5-DESHYDROXY-3'-ETHOXYSCLEROIN] | 160.3 Å²
O=c1c(O)c(-c2ccccc2)oc2cc(O)ccc12 [3,7-DIHYDROXYFLAVONE] | 152.1 Å²
CC(=O)c1cc2ccccc2oc1=O [3-ACETYLCOUMARIN] | 131.6 Å²
COc1ccc(-c2oc3ccccc3c(=O)c2O)cc1OC [3-HYDROXY-3',4'-DIMETHOXYFLAVONE] | 164.1 Å²
CC1(C)CC2C1CC[C@]1(C)CCC3C(C(=O)O)CC(=O)O[C@@]32C1 (stereo partly specified) [3-HYDROXY-4-(SUCCIN-2-YL)-CARYOLANE delta-LACTONE] | 174.9 Å²
O=c1c(O)c(-c2ccccc2)oc2ccccc12 [3-HYDROXYFLAVONE] | 146.3 Å²
CC(C)Cn1c(=O)n(C)c(=O)c2[nH]cnc21 [3-ISOBUTYL-1-METHYLXANTHINE (IBMX)] | 147.8 Å²
Cn1c(=O)[nH]c(=O)c2[nH]cnc21 [3-METHYLXANTHINE] | 127.9 Å²
C[C@]12CC[C@@H](O)C[C@H]1CCc1ccccc12 [3alpha-HYDROXY-4,4-BISNOR-8,11,13-PODOCARPATRIENE] | 140.4 Å²
Cc1cc(=O)oc2c(O)c(O)ccc12 [4-METHYLDAPHNETIN] | 134.8 Å²
COc1cc(O)c(C(C)=O)c(O)c1 [4-O-METHYLPHLORACETOPHENONE] | 130.5 Å²
O=c1c(-c2ccccc2)coc2cc(O)cc(O)c12 [5,7-DIHYDROXYISOFLAVONE] | 152.3 Å²
O=C(O)c1cc2cc(F)ccc2[nH]1 [5-FLUOROINDOLE-2-CARBOXYLIC ACID] | 145.3 Å²
COc1ccc2oc(-c3ccccc3OC)cc(=O)c2c1 [6,2'-DIMETHOXYFLAVONE] | 161.4 Å²
COc1cccc(-c2cc(=O)c3cc(OC)ccc3o2)c1 [6,3'-DIMETHOXYFLAVONE] | 162.1 Å²
O=c1cc(-c2ccccc2O)oc2cc(O)ccc12 [7,2'-DIHYDROXYFLAVONE] | 152.4 Å²
O=c1cc(-c2ccc(O)cc2)oc2cc(O)ccc12 [7,4'-DIHYDROXYFLAVONE] | 153.2 Å²
O=c1cc(-c2ccccc2)oc2c(O)c(O)ccc12 [7,8-DIHYDROXYFLAVONE] | 152 Å²
CC(=O)O[C@H]1C[C@@H](OC(C)=O)C(C)(C)C2CC(=O)[C@]3(C)C(CC[C@@]4(C)[C@H](c5ccoc5)OC(=O)[C@H]5O[C@]543)[C@]21C (stereo partly specified) [7-DEACETOXY-7-OXOKHIVORIN] | 217.7 Å²
CC(C)CCC[C@@H](C)[C@H]1CC[C@H]2[C@@H]3C(=O)C=C4C[C@@H](O)CC[C@]4(C)[C@H]3CC[C@]12C [7-OXOCHOLESTEROL] | 208.3 Å²
